In patent publication EP2179735A1 (WORLD-TRADE IMPORT-EXPORT, WTIE, A.G., priority 2007, dated 2009):

Experiments:
[1] = cited from earlier work
[2] = cited from earlier work; remark: listed apart in the source
[3] = system: convulsions induced (MES); experiment: MES test (convulsions produced by electroshocks) in mice, drugs alone and in combination, isobolographic analysis; format: in vivo
Description: MES test in rodents is broadly accepted as an experimental model of tonic-clonic convulsions or certain partial convulsions with or without secondary generalization. Brain concentrations were also assessed with anti-epilepsy compounds to monitor whether effects result in a pharmacodynamic and/or pharmacokinetic interaction.
Tests were carried out in Swiss, male, adult, albine mice with a weight between 22-26 gr.
Firstly, separately administered medicament effects were studied.

[4] = in vivo; cited from earlier work
[5] = CZP 20 mg/kg peritoneally, 30 minutes before MES test
[6] = CZP 25 mg/kg peritoneally, 30 minutes before MES test
[7] = CZP 30 mg/kg peritoneally, 30 minutes before MES test
[8] = CZP 35 mg/kg peritoneally, 30 minutes before MES test
[9] = CZP 40 mg/kg peritoneally, 30 minutes before MES test
[10] = LTG 3 mg/kg peritoneally, 60 minutes before MES test
[11] = LTG 4 mg/kg peritoneally, 60 minutes before MES test
[12] = LTG 5 mg/kg peritoneally, 60 minutes before MES test
[13] = LTG 6 mg/kg peritoneally, 60 minutes before MES test
[14] = LTG 8 mg/kg peritoneally, 60 minutes before MES test

O=C1CN=C(c2ccccc2Cl)c2cc([N+](=O)[O-])ccc2N1 [CZP, Clonazepam]
bioavailability ([1]; orally administered): 90% | recovered in urine in unaltered form ([1]; urine, po): Less than 0.5% | attachment to plasma proteins [2]: 85% | % (Percentage of protection against MES test) [3, 5]: 12.5% | P/T (Number of protected animals against electroconvulsion / Total number of animals challenged with MES test) [3, 5]: 1/8 | % (Percentage of protection against MES test) [3, 6]: 25% | P/T (Number of protected animals against electroconvulsion / Total number of animals challenged with MES test) [3, 6]: 2/8 | % (Percentage of protection against MES test) [3, 7]: 50% | P/T (Number of protected animals against electroconvulsion / Total number of animals challenged with MES test) [3, 7]: 4/8 | % (Percentage of protection against MES test) [3, 8]: 75% | P/T (Number of protected animals against electroconvulsion / Total number of animals challenged with MES test) [3, 8]: 6/8 | % (Percentage of protection against MES test) [3, 9]: 100% | P/T (Number of protected animals against electroconvulsion / Total number of animals challenged with MES test) [3, 9]: 8/8

Nc1nnc(-c2cccc(Cl)c2Cl)c(N)n1 [LTG, Lamotrigine]
removed without changes by feces ([1]; feces): 2% | drug unalteredly removed ([1]; in vivo): 10% | attachment to plasma proteins [2]: about 55% | adverse event: asthenia [4]: 10% | adverse event: ataxia [4]: 11% | adverse event: diplopy [4]: 14% | adverse event: generalized allergic rash [4]: 2-3% | adverse event: headache [4]: 12% | adverse event: skin rash [4]: 3% | adverse event: somnolence [4]: 13% | adverse event: vertigo [4]: 14% | % (Percentage of protection against MES test) [3, 10]: 0% | P/T (Number of protected animals against electroconvulsion / Total number of animals challenged with MES test) [3, 10]: 0/8 | % (Percentage of protection against MES test) [3, 11]: 25% | P/T (Number of protected animals against electroconvulsion / Total number of animals challenged with MES test) [3, 11]: 2/8 | % (Percentage of protection against MES test) [3, 12]: 50% | P/T (Number of protected animals against electroconvulsion / Total number of animals challenged with MES test) [3, 12]: 4/8 | % (Percentage of protection against MES test) [3, 13]: 75% | P/T (Number of protected animals against electroconvulsion / Total number of animals challenged with MES test) [3, 13]: 6/8 | % (Percentage of protection against MES test) [3, 14]: 100% | P/T (Number of protected animals against electroconvulsion / Total number of animals challenged with MES test) [3, 14]: 8/8
